Reference: patent US9549932B2, “2-(morpholin-4-yl)-1,7-naphthyridines” (BAYER PHARMA AKTIENGESELLSCHAFT, priority 2014, dated 2017)
Counter-ions that a name gives are not always drawn.

Biological target: full-length human ATR protein (Homo sapiens (Human), UniProt Q13535)
Assay: Binding assay ATR (TR-FRET tracer displacement)
Details: tracer A, TR-FRET; read-out: ATR binding (tracer A) IC50
From the text: To determine of binding activity of the test compounds, full-length human ATR protein was expressed and purified together with ATRIP as described above. Furthermore, a fluorescently labelled compound (either tracer A or B as described above) was used as a tracer molecule. Detection of the binding event of the tracer was achieved by time-resolved fluorescence energy transfer (TR-FRET). We used an anti-GST-Terbium antibody (CisBio) that binds to the GST-tag at the N-terminus of ATR-kinase. […] Displacement of the fluorescent tracer by a test compound leads to a reduction of the TR-FRET-signal.
For the assay 50 nl of a 100-fold concentrated solution of the test compound in DMSO was pipetted into a black low volume 384well microtiter plate (MTP, Greiner Bio-One, Frickenhausen, Germany). […] The ATR-working solution was incubated for 30 min at 22° C. prior to dispensing to pre-form the complex of antiGST-Tb+GST-ATR+ATRIP. Then, 3 μl of the ATR-working solution were added to the test compound and the mixture was incubated for 10 min at 22° C. to allow pre-binding of the test compounds to ATR/ATRIP. Then, 2 μl of a 100 nM solution of either tracer A or B in assay buffer were added to the ATR-working solution. The resulting mixture was incubated for 30 min at 22° C. […] The dilution series were prepared separately before the assay on the level of the 100 fold concentrated solutions in DMSO by serial 1:3.4 dilutions in duplicate values for each concentration. IC50 values were calculated by a 4 parameter fit using standard software (GraphPad prism or equivalent).

full-length human ATR protein, sequence (Q13535 other isoform, or with tags, fused parts or gaps): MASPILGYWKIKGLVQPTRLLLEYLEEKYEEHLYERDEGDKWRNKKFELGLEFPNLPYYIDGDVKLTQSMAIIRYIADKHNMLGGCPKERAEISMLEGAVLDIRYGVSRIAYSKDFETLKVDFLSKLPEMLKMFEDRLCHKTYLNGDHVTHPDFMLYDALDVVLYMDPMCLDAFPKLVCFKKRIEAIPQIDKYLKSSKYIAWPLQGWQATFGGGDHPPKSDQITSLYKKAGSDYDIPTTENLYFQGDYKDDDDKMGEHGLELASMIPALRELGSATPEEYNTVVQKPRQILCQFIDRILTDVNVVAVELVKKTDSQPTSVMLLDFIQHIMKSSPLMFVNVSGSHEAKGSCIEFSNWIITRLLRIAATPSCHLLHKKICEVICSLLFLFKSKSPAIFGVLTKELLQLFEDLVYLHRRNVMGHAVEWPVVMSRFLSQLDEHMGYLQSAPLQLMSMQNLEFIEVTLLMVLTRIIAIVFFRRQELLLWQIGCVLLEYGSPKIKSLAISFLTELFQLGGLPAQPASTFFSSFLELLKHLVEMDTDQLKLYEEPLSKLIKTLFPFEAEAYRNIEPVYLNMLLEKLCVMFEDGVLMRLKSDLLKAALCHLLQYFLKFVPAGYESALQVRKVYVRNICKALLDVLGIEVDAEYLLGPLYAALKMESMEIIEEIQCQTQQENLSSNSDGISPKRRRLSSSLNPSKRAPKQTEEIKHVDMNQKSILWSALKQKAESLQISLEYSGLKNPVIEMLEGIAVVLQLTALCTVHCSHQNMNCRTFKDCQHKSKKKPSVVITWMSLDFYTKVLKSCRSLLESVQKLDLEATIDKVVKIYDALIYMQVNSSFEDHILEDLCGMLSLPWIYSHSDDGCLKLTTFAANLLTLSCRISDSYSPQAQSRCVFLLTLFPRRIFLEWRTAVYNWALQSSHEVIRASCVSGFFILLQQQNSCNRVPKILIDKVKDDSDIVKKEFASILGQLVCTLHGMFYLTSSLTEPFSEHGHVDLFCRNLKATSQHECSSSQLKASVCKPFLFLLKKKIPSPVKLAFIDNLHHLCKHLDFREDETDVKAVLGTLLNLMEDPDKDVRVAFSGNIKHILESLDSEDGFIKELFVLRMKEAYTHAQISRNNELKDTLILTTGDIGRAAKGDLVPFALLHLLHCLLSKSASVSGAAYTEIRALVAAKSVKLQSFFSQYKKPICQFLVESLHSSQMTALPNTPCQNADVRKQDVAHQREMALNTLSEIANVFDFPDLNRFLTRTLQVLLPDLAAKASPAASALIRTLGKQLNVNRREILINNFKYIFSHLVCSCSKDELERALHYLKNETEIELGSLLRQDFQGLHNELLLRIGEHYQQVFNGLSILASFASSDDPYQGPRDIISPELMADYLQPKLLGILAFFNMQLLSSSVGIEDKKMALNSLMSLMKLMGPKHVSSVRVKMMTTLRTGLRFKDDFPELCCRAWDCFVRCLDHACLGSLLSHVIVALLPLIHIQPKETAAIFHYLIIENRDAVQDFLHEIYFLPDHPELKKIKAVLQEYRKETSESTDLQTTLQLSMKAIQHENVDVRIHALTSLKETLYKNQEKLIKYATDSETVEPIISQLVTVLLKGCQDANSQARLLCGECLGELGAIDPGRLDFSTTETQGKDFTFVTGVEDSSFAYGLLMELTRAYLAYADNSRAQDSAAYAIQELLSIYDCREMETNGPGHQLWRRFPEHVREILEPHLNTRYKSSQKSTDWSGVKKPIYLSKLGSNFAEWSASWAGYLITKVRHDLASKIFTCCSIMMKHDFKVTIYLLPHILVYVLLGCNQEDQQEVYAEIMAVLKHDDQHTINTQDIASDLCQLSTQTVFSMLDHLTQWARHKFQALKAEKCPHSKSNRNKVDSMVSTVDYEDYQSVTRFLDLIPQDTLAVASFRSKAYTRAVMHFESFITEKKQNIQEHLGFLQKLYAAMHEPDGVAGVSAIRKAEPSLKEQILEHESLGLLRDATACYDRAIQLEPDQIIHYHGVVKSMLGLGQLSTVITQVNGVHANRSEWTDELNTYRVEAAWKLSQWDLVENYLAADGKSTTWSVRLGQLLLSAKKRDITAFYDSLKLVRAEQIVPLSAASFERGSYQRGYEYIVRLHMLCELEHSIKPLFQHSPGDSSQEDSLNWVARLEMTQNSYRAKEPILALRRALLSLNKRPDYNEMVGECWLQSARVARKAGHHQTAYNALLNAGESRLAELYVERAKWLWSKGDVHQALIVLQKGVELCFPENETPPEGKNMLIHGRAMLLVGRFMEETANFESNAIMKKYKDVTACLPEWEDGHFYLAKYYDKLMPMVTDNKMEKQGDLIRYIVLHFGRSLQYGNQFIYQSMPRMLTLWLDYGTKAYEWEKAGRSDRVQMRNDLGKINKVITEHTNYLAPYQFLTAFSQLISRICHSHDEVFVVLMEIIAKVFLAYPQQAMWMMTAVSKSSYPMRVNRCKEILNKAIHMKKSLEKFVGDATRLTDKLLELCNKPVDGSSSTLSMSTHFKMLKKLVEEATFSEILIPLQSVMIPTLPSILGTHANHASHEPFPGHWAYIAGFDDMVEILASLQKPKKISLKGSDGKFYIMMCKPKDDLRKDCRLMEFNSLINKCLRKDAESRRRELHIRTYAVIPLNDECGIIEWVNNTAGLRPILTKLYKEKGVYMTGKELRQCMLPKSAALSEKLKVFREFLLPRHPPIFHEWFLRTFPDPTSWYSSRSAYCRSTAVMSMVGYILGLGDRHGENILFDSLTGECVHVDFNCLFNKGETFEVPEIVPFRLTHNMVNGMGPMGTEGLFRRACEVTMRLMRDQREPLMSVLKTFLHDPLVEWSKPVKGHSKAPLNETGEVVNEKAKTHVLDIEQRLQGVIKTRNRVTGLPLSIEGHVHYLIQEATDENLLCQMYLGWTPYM
full-length human ATR protein, sequence (Q8WXE1 other isoform, or with tags, fused parts or gaps partner): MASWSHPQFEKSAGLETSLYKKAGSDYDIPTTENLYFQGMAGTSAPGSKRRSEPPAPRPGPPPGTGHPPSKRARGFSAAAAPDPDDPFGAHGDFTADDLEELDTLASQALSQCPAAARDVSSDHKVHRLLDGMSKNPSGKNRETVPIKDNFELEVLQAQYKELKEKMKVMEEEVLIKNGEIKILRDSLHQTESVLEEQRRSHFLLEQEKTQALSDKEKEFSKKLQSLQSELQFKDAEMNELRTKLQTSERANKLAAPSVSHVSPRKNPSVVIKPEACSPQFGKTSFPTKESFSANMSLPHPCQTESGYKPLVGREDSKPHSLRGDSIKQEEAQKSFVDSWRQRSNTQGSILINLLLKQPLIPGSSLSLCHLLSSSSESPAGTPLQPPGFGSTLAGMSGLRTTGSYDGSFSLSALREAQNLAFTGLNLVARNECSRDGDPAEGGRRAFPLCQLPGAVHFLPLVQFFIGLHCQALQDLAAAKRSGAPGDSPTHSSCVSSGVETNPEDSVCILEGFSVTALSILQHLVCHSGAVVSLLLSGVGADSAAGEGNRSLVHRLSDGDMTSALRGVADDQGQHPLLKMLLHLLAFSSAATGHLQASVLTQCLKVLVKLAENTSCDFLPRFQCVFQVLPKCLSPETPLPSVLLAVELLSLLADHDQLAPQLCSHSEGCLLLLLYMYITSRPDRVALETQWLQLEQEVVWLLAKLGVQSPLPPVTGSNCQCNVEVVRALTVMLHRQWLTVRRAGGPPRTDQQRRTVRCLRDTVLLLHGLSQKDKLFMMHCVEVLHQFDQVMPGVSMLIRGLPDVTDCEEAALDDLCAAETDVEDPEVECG

Going from `c1cnc2c(-c3cc(N4CCOCC4)nc4c(-c5ccn[nH]5)nccc34)cccc2c1` [Example 380, 2-(morpholin-4-yl)-8-(1H-pyrazol-5-yl)-4-(quinolin-8-yl)-1,7-naphthyridine] to `c1cc(-c2cc(N3CCOCC3)nc3c(-c4ccn[nH]4)nccc23)c2ccncc2c1` [Example 397, 4-(isoquinolin-5-yl)-2-(morpholin-4-yl)-8-(1H-pyrazol-5-yl)-1,7-naphthyridine], the IC50 falls from 1460 nM to 95.5 nM (15-fold). The second is the more potent here.

Compared with `Cc1nn(C)c(C)c1-c1cc(N2CCOC[C@H]2C)nc2c(-c3ccn[nH]3)nccc12` [Example 258, 2-[(3R)-3-methylmorpholin-4-yl]-8-(1H-pyrazol-5-yl)-4-(1,3,5-trimethyl-1H-pyrazol-4-yl)-1,7-naphthyridine], `C[C@@H]1COCCN1c1cc(-c2ccn(CC(C)(C)O)n2)c2ccnc(-c3ccn[nH]3)c2n1` [Example 161, 2-methyl-1-(3-{2-[(3R)-3-methylmorpholin-4-yl]-8-(1H-pyrazol-5-yl)-1,7-naphthyridin-4-yl}-1H-pyrazol-1-yl)propan-2-ol] is 8.2-fold higher in IC50: 7.66 nM for the first, 62.6 nM for the second. The first is the more potent here.

Compared with `C[C@@H]1COCCN1c1cc(N)c2ccnc(-c3ccn[nH]3)c2n1` [Example 267, 2-[(3R)-3-methylmorpholin-4-yl]-8-(1H-pyrazol-5-yl)-1,7-naphthyridin-4-amine], `CCC(O)(CC)c1cc(N2CCOC[C@H]2C)nc2c(-c3ccn[nH]3)nccc12` [Example 129, 3-{2-[(3R)-3-methylmorpholin-4-yl]-8-(1H-pyrazol-5-yl)-1,7-naphthyridin-4-yl}pentan-3-ol] is 29-fold lower in IC50: 1010 nM for the first, 35.3 nM for the second. The second is the more potent here.

Compared with `c1cc2ccc(N3CCOCC3)nc2c(-c2cc[nH]n2)n1` [Example 61, 2-(morpholin-4-yl)-8-(1H-pyrazol-3-yl)-[1,7]naphthyridine hydrochloride], `CC(C)Oc1cc(N2CCOCC2)nc2c(-c3ccc[nH]3)nccc12` [Example 41, 2-(morpholin-4-yl)-4-(propan-2-yloxy)-8-(1H-pyrrol-2-yl)-1,7-naphthyridine] is 2.1-fold lower in IC50: 709 nM for the first, 339 nM for the second. The second is the more potent here.

First: c1ccc2c(c1)CN(c1cc(N3CCOCC3)nc3c(-c4ccn[nH]4)nccc13)C2 [Example 420, 4-(1,3-dihydro-2H-isoindol-2-yl)-2-(morpholin-4-yl)-8-(1H-pyrazol-5-yl)-1,7-naphthyridine]
Second: c1cc(-c2nccc3c(N4CCn5ccnc5C4)cc(N4CCOCC4)nc23)[nH]n1 [Example 169, 4-(5,6-dihydroimidazo[1,2-a]pyrazin-7(8H)-yl)-2-(morpholin-4-yl)-8-(1H-pyrazol-5-yl)-1,7-naphthyridine]
The IC50 of the first is 5.2-fold higher: 602 nM for the first, 115 nM for the second.

First: O=C(c1cccc(-c2cc(N3CCOCC3)nc3c(-c4ccn[nH]4)nccc23)c1)N1CCCCC1 [Example 328, {3-[2-(morpholin-4-yl)-8-(1H-pyrazol-5-yl)-1,7-naphthyridin-4-yl]phenyl}(piperidin-1-yl)methanone]
Second: NC(=O)c1cccc(-c2cc(N3CCOCC3)nc3c(-c4ccn[nH]4)nccc23)c1 [Example 295, 3-[2-(morpholin-4-yl)-8-(1H-pyrazol-5-yl)-1,7-naphthyridin-4-yl]benzamide]
The IC50 of the first is 2.6-fold higher: 296 nM for the first, 113 nM for the second.

Compared with `C[C@@H]1COCCN1c1cc(OCCCCNC(=O)OC(C)(C)C)c2ccnc(-c3ccn[nH]3)c2n1` [Example 52, Tert-butyl [4-({2-[(3R)-3-methylmorpholin-4-yl]-8-(1H-pyrazol-5-yl)-1,7-naphthyridin-4-yl}oxy)butyl]carbamate], `C[C@@H]1COCCN1c1cc(OCCNC(=O)OC(C)(C)C)c2ccnc(-c3ccn[nH]3)c2n1` [Example 56, Tert-butyl [2-({2-[(3R)-3-methylmorpholin-4-yl]-8-(1H-pyrazol-5-yl)-1,7-naphthyridin-4-yl}oxy)ethyl]carbamate] is 7.4-fold higher in IC50: 101 nM for the first, 751 nM for the second.

`Clc1ccc(-c2cc(N3CCOCC3)nc3c(-c4ccn[nH]4)nccc23)s1` [Example 299, 4-(5-chlorothiophen-2-yl)-2-(morpholin-4-yl)-8-(1H-pyrazol-5-yl)-1,7-naphthyridine] and `Cc1ccc(C)c(-c2cc(N3CCOCC3)nc3c(-c4ccn[nH]4)nccc23)c1` [Example 334, 4-(2,5-dimethylphenyl)-2-(morpholin-4-yl)-8-(1H-pyrazol-5-yl)-1,7-naphthyridine] are within 1.5-fold of each other in IC50: 55.2 nM for the first, 58.1 nM for the second.

Going from `C[C@@H]1COCCN1c1cc(C2CC[S+]([O-])CC2)c2ccnc(-c3ccn[nH]3)c2n1` (stereo partly drawn) [Example 203, 2-[(3R)-3-methylmorpholin-4-yl]-4-[1-oxidotetrahydro-2H-thiopyran-4-yl]-8-(1H-pyrazol-5-yl)-1,7-naphthyridine] to `C[C@@H]1COCCN1c1cc(-c2cnn(C3CC3)c2)c2ccnc(-c3ccn[nH]3)c2n1` [Example 254, 4-(1-cyclopropyl-1H-pyrazol-4-yl)-2-[(3R)-3-methylmorpholin-4-yl]-8-(1H-pyrazol-5-yl)-1,7-naphthyridine], the IC50 rises from 11.3 nM to 44.8 nM (4-fold). The first is the more potent here.

Compared with `C[C@@H]1COCCN1c1cc(N=S(C)(=O)c2ccccc2F)c2ccnc(-c3ccn[nH]3)c2n1` (stereo partly drawn) [Example 139, 4-{[(2-fluorophenyl)(methyl)oxido-λ^6-sulfanylidene]amino}-2-[(3R)-3-methylmorpholin-4-yl]-8-(1H-pyrazol-5-yl)-1,7-naphthyridine], `C[C@@H]1COCCN1c1cc(-c2ccccc2N(C)C)c2ccnc(-c3ccn[nH]3)c2n1` [Example 122, N,N-dimethyl-2-{2-[(3R)-3-methylmorpholin-4-yl]-8-(1H-pyrazol-5-yl)-1,7-naphthyridin-4-yl}aniline] is 2.1-fold lower in IC50: 41.7 nM for the first, 19.4 nM for the second. The second is the more potent here.

`C[C@@H]1COCCN1c1cc(-c2ccncc2F)c2ccnc(-c3ccn[nH]3)c2n1` [Example 230, 4-(3-fluoropyridin-4-yl)-2-[(3R)-3-methylmorpholin-4-yl]-8-(1H-pyrazol-5-yl)-1,7-naphthyridine] and `C[C@@H]1COCCN1c1cc(-c2ccc(F)cc2F)c2ccnc(-c3ccn[nH]3)c2n1` [Example 123, 4-(2,4-difluorophenyl)-2-[(3R)-3-methylmorpholin-4-yl]-8-(1H-pyrazol-5-yl)-1,7-naphthyridine] are within 1.5-fold of each other in IC50: 31.7 nM for the first, 21.3 nM for the second.

`COc1nccc(-c2cc(N3CCOC[C@H]3C)nc3c(-c4ccn[nH]4)nccc23)c1Cl` [Example 106, 4-(3-chloro-2-methoxypyridin-4-yl)-2-[(3R)-3-methylmorpholin-4-yl]-8-(1H-pyrazol-5-yl)-1,7-napthyridine] and `Cc1cc(S(C)(=O)=O)ncc1-c1cc(N2CCOC[C@H]2C)nc2c(-c3ccn[nH]3)nccc12` [Example 79, 4-[4-methyl-6-(methylsulfonyl)pyridin-3-yl]-2-[(3R)-3-methylmorpholin-4-yl]-8-(1H-pyrazol-5-yl)-1,7-naphthyridine] are within 1.5-fold of each other in IC50: 13.1 nM for the first, 12 nM for the second.

Compared with `OCc1cccc(-c2cc(N3CCOCC3)nc3c(-c4ccn[nH]4)nccc23)c1` [Example 313, {3-[2-(morpholin-4-yl)-8-(1H-pyrazol-5-yl)-1,7-naphthyridin-4-yl]phenyl}methanol], `c1cc(-c2nccc3c(-c4ccc5cc[nH]c5c4)cc(N4CCOCC4)nc23)[nH]n1` [Example 293, 4-(1H-indo1-6-yl)-2-(morpholin-4-yl)-8-(1H-pyrazol-5-yl)-1,7-naphthyridine] is 11-fold higher in IC50: 29 nM for the first, 328 nM for the second.

Going from `COc1ccc2c(c1)cc(-c1cc(N3CCOCC3)nc3c(-c4ccn[nH]4)nccc13)n2C(=O)OC(C)(C)C` [Example 368, tert-butyl 5-methoxy-2-[2-(morpholin-4-yl)-8-(1H-pyrazol-5-yl)-1,7-naphthyridin-4-yl]-1H-indole-1-carboxylate] to `COc1ccc(Sc2cc(N3CCOCC3)nc3c(-c4ccn[nH]4)nccc23)cc1` [Example 213], the IC50 falls from 3950 nM to 53.5 nM (74-fold).

Going from `OC1(C(F)(F)F)CN(c2cc(N3CCOCC3)nc3c(-c4ccn[nH]4)nccc23)C1` [Example 180, 1-[2-(morpholin-4-yl)-8-(1H-pyrazol-5-yl)-1,7-naphthyridin-4-yl]-3-(trifluoromethyl)azetidin-3-ol] to `C/C=C/c1cc(N2CCOCC2)nc2c(-c3ccn[nH]3)nccc12` [Example 325, 2-(morpholin-4-yl)-4-[(1E)-prop-1-en-1-yl]-8-(1H-pyrazol-5-yl)-1,7-naphthyridine], the IC50 falls from 487 nM to 34.4 nM (14-fold). The second is the more potent here.

First: O=S1(=Nc2cc(N3CCOCC3)nc3c(-c4ccn[nH]4)nccc23)CCCCC1 [Example 280, N-[2-(morpholin-4-yl)-8-(1H-pyrazol-5-yl)-1,7-naphthyridin-4-yl]hexahydro-1λ^4-thiopyran-1-imine 1-oxide]
Second: CN1CC=C(c2cc(N3CCOCC3)nc3c(-c4ccn[nH]4)nccc23)CC1 [Example 14, 4-(1-methyl-1,2,3,6-tetrahydropyridin-4-yl)-2-(morpholin-4-yl)-8-(1H-pyrazol-5-yl)-1,7-naphthyridine]
The IC50 of the first is 3.5-fold lower: 46.8 nM for the first, 162 nM for the second. The first is the more potent here.

`CC(C)(C)OC(=O)[C@@H]1CCCN1c1cc(N2CCOCC2)nc2c(-c3ccn[nH]3)nccc12` [Example 422, tert-butyl 1-[2-(morpholin-4-yl)-8-(1H-pyrazol-5-yl)-1,7-naphthyridin-4-yl]-prolinate] showed an IC50 of 2240 nM.

Same assay, conditions: tracer B, TR-FRET; read-out: ATR binding (tracer B) IC50

First: c1cc2ccc(N3CCOCC3)nc2c(-c2cc[nH]n2)n1 [Example 61, 2-(morpholin-4-yl)-8-(1H-pyrazol-3-yl)-[1,7]naphthyridine hydrochloride]
Second: CC(C)Oc1cc(N2CCOCC2)nc2c(-c3ccc[nH]3)nccc12 [Example 41, 2-(morpholin-4-yl)-4-(propan-2-yloxy)-8-(1H-pyrrol-2-yl)-1,7-naphthyridine]
The IC50 of the first is 2.2-fold higher: 503 nM for the first, 230 nM for the second.

First: C[C@@H]1COCCN1c1cc(OCCCCNC(=O)OC(C)(C)C)c2ccnc(-c3ccn[nH]3)c2n1 [Example 52, Tert-butyl [4-({2-[(3R)-3-methylmorpholin-4-yl]-8-(1H-pyrazol-5-yl)-1,7-naphthyridin-4-yl}oxy)butyl]carbamate]
Second: C[C@@H]1COCCN1c1cc(OCCNC(=O)OC(C)(C)C)c2ccnc(-c3ccn[nH]3)c2n1 [Example 56, Tert-butyl [2-({2-[(3R)-3-methylmorpholin-4-yl]-8-(1H-pyrazol-5-yl)-1,7-naphthyridin-4-yl}oxy)ethyl]carbamate]
The IC50 of the first is 4.1-fold lower: 78.9 nM for the first, 324 nM for the second. The first is the more potent here.

For `CN1CC=C(c2cc(N3CCOCC3)nc3c(-c4ccn[nH]4)nccc23)CC1` [Example 14, 4-(1-methyl-1,2,3,6-tetrahydropyridin-4-yl)-2-(morpholin-4-yl)-8-(1H-pyrazol-5-yl)-1,7-naphthyridine], the IC50 was 79.9 nM.
